Measurements taken from PubChem BioAssay (NCI).
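GI50: concentration for 50% inhibition of growth. TGI marks complete inhibition of growth.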

Legend:
Test in all cases: NCI-60 cell line screen, 384-well format; in the data active = GI50 below about 0.43 µM; inactive = the rest
[1] = tested on: MCF7 breast
[2] = tested on: HS 578T breast
[3] = tested on: MDA-MB-231 breast
[4] = tested on: SK-MEL-28 melanoma
[5] = tested on: MOLT-4 leukemia
[6] = tested on: NCI-H522 lung
[7] = tested on: CAKI-1 renal
[8] = tested on: SNB-75 CNS
[9] = tested on: HOP-62 NSCLC
[10] = tested on: LOX IMVI melanoma
[11] = tested on: SN12C renal
[12] = tested on: A549 NSCLC
[13] = tested on: PC-3 prostate
[14] = tested on: KM12 colon
[15] = tested on: SW-620 colon
[16] = tested on: SK-OV-3 ovarian
[17] = tested on: MDA-MB-468 breast
[18] = tested on: OVCAR-5 ovarian
[19] = tested on: RXF 393 renal
[20] = tested on: ACHN renal
[21] = tested on: COLO 205 colon
[22] = tested on: SR leukemia
[23] = tested on: M14 melanoma
[24] = tested on: HCT-116 colon
[25] = tested on: HCC-2998 colon
[26] = tested on: 786-0 renal
[27] = tested on: HOP-92 NSCLC
[28] = tested on: NCI-H23 lung
[29] = tested on: NCI-H322M lung
[30] = tested on: A498 renal
[31] = tested on: SF-268 CNS
[32] = tested on: SF-295 CNS
[33] = tested on: NCI-H226 lung
[34] = tested on: RPMI-8226 leukemia
[35] = tested on: DU-145 prostate
[36] = tested on: TK-10 renal
[37] = tested on: MALME-3M melanoma
[38] = tested on: HCT-15 colon
[39] = tested on: UACC-62 melanoma
[40] = tested on: EKVX NSCLC
[41] = tested on: OVCAR-4 ovarian
[42] = tested on: CCRF-CEM leukemia
[43] = tested on: U251 glioblastoma
[44] = tested on: UO-31 renal
[45] = tested on: SNB-19 CNS
[46] = tested on: OVCAR-3 ovarian
[47] = tested on: BT-549 breast
[48] = tested on: NCI-H460 NSCLC
[49] = tested on: HT29 colon
[50] = tested on: OVCAR-8 ovarian
[51] = tested on: SF-539 CNS
[52] = tested on: HL-60(TB) leukemia
[53] = tested on: NCI/ADR-RES ovarian
[54] = tested on: T-47D breast
[55] = tested on: IGROV1 ovarian

COC(=O)N[C@@H](C)CNc1nccc(-c2cn(C(C)C)nc2-c2cc(Cl)cc(NS(C)(=O)=O)c2F)n1
> 76.8 µM: TGI [15]
40.8 µM: TGI [2]
> 95.8 µM: TGI [29]
> 71.9 µM: TGI [24]
40.2 µM: TGI [3]
97.9 µM: TGI [6]
active: GI50 [4] < 0.01 µM | GI50 [21] < 0.01 µM | GI50 [23] < 0.01 µM | GI50 [37] < 0.01 µM | GI50 [39] < 0.01 µM | GI50 [49] < 0.01 µM
34.9 µM: TGI [19]
20.6 µM: TGI [22]
6.91 µM: TGI [52]
> 61.2 µM: TGI [10]
> 47.9 µM: TGI [7]
inactive: GI50 [1] > 100 µM | GI50 [2] 14.7 µM | GI50 [3] 3.17 µM | GI50 [5] 29.6 µM | GI50 [6] 3.91 µM | GI50 [7] 0.728 µM | GI50 [8] 14.8 µM | GI50 [9] 61.9 µM | GI50 [10] 0.498 µM | GI50 [11] 14.9 µM | GI50 [12] 16.3 µM | GI50 [13] 70.9 µM | GI50 [14] 36.5 µM | GI50 [15] 6.22 µM | GI50 [16] 0.806 µM | GI50 [17] 11.5 µM | GI50 [18] 33.2 µM | GI50 [19] 6.32 µM | GI50 [20] 3.54 µM | GI50 [22] 6.45 µM | GI50 [24] 1.92 µM | GI50 [25] 11.9 µM | GI50 [26] 7.06 µM | GI50 [27] 7.13 µM | GI50 [28] 4.15 µM | GI50 [29] 6.15 µM | GI50 [30] 1.13 µM | GI50 [31] > 84.8 µM | GI50 [32] 97.6 µM | GI50 [33] 37 µM | GI50 [34] > 100 µM | GI50 [35] 6.7 µM | GI50 [36] 20.7 µM | GI50 [38] 9.03 µM | GI50 [40] 13.8 µM | GI50 [41] > 100 µM | GI50 [42] 42.2 µM | GI50 [43] 17.2 µM | GI50 [44] 6.96 µM | GI50 [45] > 100 µM | GI50 [46] 48.8 µM | GI50 [47] 38.1 µM | GI50 [48] 32.5 µM | GI50 [50] 38.2 µM | GI50 [51] 43.3 µM | GI50 [52] 2.06 µM | GI50 [53] > 100 µM | GI50 [54] > 20 µM | GI50 [55] 0.929 µM
> 100 µM: TGI [1] | TGI [5] | TGI [8] | TGI [9] | TGI [11] | TGI [13] | TGI [14] | TGI [16] | TGI [17] | TGI [18] | TGI [20] | TGI [27] | TGI [28] | TGI [30] | TGI [31] | TGI [32] | TGI [33] | TGI [34] | TGI [35] | TGI [36] | TGI [38] | TGI [40] | TGI [41] | TGI [42] | TGI [44] | TGI [45] | TGI [46] | TGI [47] | TGI [48] | TGI [50] | TGI [51] | TGI [53] | TGI [54] | TGI [55]
65.9 µM: TGI [43]
23.6 µM: TGI [49]
> 92.6 µM: TGI [12]
< 0.0175 µM: TGI [23]
< 0.01 µM: TGI [4] | TGI [37] | TGI [39]
> 73.3 µM: TGI [26]
39.7 µM: TGI [25]
